Measured values from article PMC11298695.
Values after ≈ are worked out from the molar mass of the structure shown. Where two headings read alike, the source gives them in different places. One block for each compound: values may come before it.

Columns and labels:
[1] = ref Nan et al., 2014, Panizzon et al., 2019; cited from earlier work
[2] = Powder dissolution (apparent solubility) in pH 6.8 phosphate buffer and water; type: physicochemical
Method: A Model 1,525 system (Waters Corporation, Milford MA, United States) equipped with a photodiode array (PDA) detector (Waters 2998, Milford MA, United States) and a SunFire C18 column (4.6 mm × 250 mm, 5 μm, Waters, Ireland) was used for HPLC analysis. The column temperature was maintained at 37°C and the autosampler temperature was room temperature. The mobile phase consisted of methanol and H2O (70:30, v/v) at a flow rate of 1.0 mL/min. The detection wavelength of the UV detector was 248 nm and the injection volume of sample was 20 µL. The standard curve ranged from 10 μg/mL to 0.078125 μg/mL. […] The powders were sieved using standard sieves to control particle size within 75–150 µm. […] The filtrates were diluted to an appropriate concentration, and analyzed using HPLC.

[3] = Environmental pH of dissolution media; type: physicochemical
[4] = Caco-2 cell monolayer transport of DAI (AP to BL); type: in vitro ADME; details: human, Caco-2, DAI 50 μg/mL, read-out: apparent permeability coefficient (P app)
Method: (§1) Caco-2 cells were seeded on 12-well Transwell® (Corning Costar, Lowell, MA, United States) culture plates (pore size 0.4 µm, surface area 1.12 cm^2) at 5 × 10^4 cells/mL. On the 3rd, 5th, 7th, 13th, 18th, and 21st days of culture, the transepithelial electrical resistance (TEER) value was measured using an EVOM2 transmembrane resistance meter (Millipore, United States) to evaluate the integrity of the Caco-2 cell monolayer.
(§2) After washing the Caco-2 cell monolayer twice with prewarmed Hank’s Balanced Salt Solution (HBSS), the transport experiments were performed by adding the final concentration of DAI (0.5 mL) to the apical side (AP) as the donor chamber, and adding HBSS (1.5 mL) to the basolateral side (BL) as the receiving chamber. The plate was incubated at 37°C and 200 μL of sample was collected from the BL side at 30, 45, 60, 90, and 120 min. […]
(§3) The apparent permeability coefficient (P app ) for DAI was calculated using Eq. 3 ([Ndayishimiye et al., 2022]). Papp=dQ/dt∗1/A∗C0 cm/s (3) where Q refers to the cumulative transport amount, i.e., the total drug quantity on the receiving side (μg); dQ/dt represents the transport rate of the drug through the Caco-2 cell monolayer (μg/s); A denotes the chamber membrane area (1.12 cm^2); and C0 is the initial concentration of DAI on the AP side (μg/mL).

[5] = test system: Caco-2 cell monolayer; test: Caco-2 cell monolayer transport of DAI (AP to BL); type: in vitro ADME; details: 120 min
Method: as §1, §2, §3

[6] = no reference given; cited from earlier work
[7] = in vivo; details: male, dog, plasma, beagle dogs, oral, 40 mg/kg
[8] = in vitro; type: cell-based; details: human, Caco-2 cells, read-out: cell viability; for viability at 24 h: Caco-2, 24 h
[9] = test system: Caco-2 cells; test: in vitro; type: cell-based; details: Caco-2, CCK-8
[10] = Efflux function of the Caco-2 cell model with Rhodamine 123; type: in vitro ADME; details: human

SMILES: O=c1c(-c2ccc(O)cc2)coc2cc(O)ccc12 [DAI, 4′,7-dihydroxyisoflavone]
water solubility [1]: 0.31 µg/mL (≈ 1.22 µM)
peak time of Smax ([2]; pH 6.8 buffer): 45 min
solubility at 45 min ([2]; pH 6.8 phosphate buffer, aqueous buffer, thermodynamic from solid, pH 6.8 buffer, 37°C, powder dissolution, read-out: maximum apparent solubility (Smax)): 1.01 ± 0.06 µg/mL (≈ 3.97 µM)
time to reach Smax ([2]; water): ≤ 240 min
solubility at 240 min ([2]; water, 37 °C, water, thermodynamic from solid, read-out: maximum apparent solubility (Smax)): 0.48 ± 0.09 µg/mL (≈ 1.89 µM)
environmental pH ([3]; medium pH6.8 buffer): 6.74 ± 0.03
environmental pH ([3]; medium water (pH 7.0)): 3.80 ± 0.06
Papp at 120 min, 50 μg/mL [4]: 22.8 ± 1.6 ×10⁻⁶ cm/s
cumulative transport of DAI [5]: 9.19 ± 0.65 µg
pK a [6]: 7.43
Tmax [7]: 49.8 ± 8.4 min
Cmax [7]: 210 ± 40 ng/mL
AUC ([7]; read-out: AUC0∼24): 1740 ± 150 ng·h/mL
viability at 24 h ([8]; 1st of five listed concentrations (not assigned)): 87%
viability at 24 h ([8]; 2nd of five listed concentrations (not assigned)): 88.1%
viability at 24 h ([8]; 3rd of five listed concentrations (not assigned)): 94.7%
viability at 24 h ([8]; 4th of five listed concentrations (not assigned)): 98%
viability at 24 h ([8]; 5th of five listed concentrations (not assigned)): 94%
effect on Caco-2 cells [9]: dose-dependent inhibitory effect

SMILES: C1CNCCN1 [PIP, Piperazine]
viability at 24 h, 16.94 μg/mL ([8]; Caco-2, PIP 16.94 μg/mL): 85.2%

Papp A→B at 120 min ([10]; 120 min): 0.179 ± 0.061 ×10⁻⁶ cm/s
Papp B→A at 120 min ([10]; 120 min): 0.852 ± 0.016 ×10⁻⁶ cm/s
efflux ratio at 120 min ([10]; Papp BL→AP / Papp AP→BL, read-out: Efflux ratio (ER)): 4.76
SMILES: COC(=O)c1ccccc1-c1c2ccc(=N)cc-2oc2cc(N)ccc12 [Rhodamine 123]
